# Patent US11254696B2, “Dianilinopyrimidine compound for inhibiting kinase activity” (Shenzhen Targetrx, Inc., priority 2017, dated 2022)
# Key:
# [1] = Metabolic stability in human liver microsomes; type: in vitro ADME; conditions: pH 7.4, 1 μM compound, 0.5 mg/mL protein; for microsomal CLint at 1 μM: read-out: CLint (uL/min/mg), Human liver microsome experiment; for half-life at 1 μM: read-out: t1/2 (min), Human liver microsome experiment
# Method: (§1) Experiments in microsomes: Human liver microsomes: 0.5 mg/mL, Xenotech; Rat liver microsomes: 0.5 mg/mL, Xenotech; Coenzyme (NADPH/NADH): 1 mM, Sigma Life Science; Magnesium chloride: 5 mM, 100 mM phosphate buffer (pH 7.4).
# (§2) Preparation of stock solution: Powder of the example compounds was accurately weighed and dissolved in DMSO to 5 mM. Preparation of phosphate buffer (100 mM, pH7.4): A pre-formulated 0.5M potassium dihydrogen phosphate (150 mL) was mixed with 0.5M dibasic potassium phosphate (700 mL). The pH of the mixture was adjusted to 7.4 with 0.5M dibasic potassium phosphate solution. The mixture was diluted 5-fold with ultrapure water before use, and magnesium chloride was added to obtain a phosphate buffer (100 mM) containing 100 mM potassium phosphate, 3.3 mM magnesium chloride, pH7.4. A NADPH regeneration system solution (containing 6.5 mM NADP, 16.5 mM G-6-P, 3 U/mL G-6-PD, 3.3 mM magnesium chloride) was prepared and placed on wet ice prior to use. Preparation of stop solution: acetonitrile solution containing 50 ng/mL propranolol hydrochloride and 200 ng/mL tolbutamide (internal standard). 25057.5 μL of phosphate buffer (pH 7.4) was taken into a 50 mL centrifuge tube, to which 812.5 μL human liver microsomes were added, and mixed to obtain a liver microsome dilution solution with a protein concentration of 0.625 mg/mL. 25057.5 μL of phosphate buffer (pH 7.4) was taken into a 50 mL centrifuge tube, to which 812.5 μL SD rat liver microsomes were added, and mixed to obtain a liver microsome dilution solution with a protein concentration of 0.625 mg/mL.
# (§3) Incubation of the samples: The stock solution of the respective compound was respectively diluted to 0.25 mM with an aqueous solution containing 70% acetonitrile, and used as a working solution, ready for use. 398 μL of the dilution solution of human liver microsomes or rat liver microsome were added to a 96-well incubation plate (N=2), respectively, and 2 μL of 0.25 mM working solution was added and mixed.
# (§4) Metabolic stability assay: 300 μL of pre-chilled stop solution was added to each well of a 96-well deep well plate and placed on ice as a stop plate. The 96 well incubation plate and NADPH regeneration system were placed in a 37° C. water bath box, shaken at 100 rpm and pre-incubated for 5 min. 80 μL of incubation solution was taken out from each well of the incubation plate and added to the stop plate, mixed, and replenished with 20 μL of NADPH regeneration system solution as a 0-min sample. 80 μL of NADPH regeneration system solution was added to each well of the incubation plate to start the reaction and start counting. […] Separately, 100 μL of the reaction solution was taken at 10, 30, and 90 min reaction, respectively, added to a stop plate, and vortexed for 3 minutes to terminate the reaction. The stop plate was centrifuged at 5000×g at 4° C. for 4 min. 100 μL of the supernatant was added to a 96-well plate to which 100 μL of distilled water was previously added, mixed, and analyzed by LC-MS/MS.
# (§5) Data analysis: The peak areas of the corresponding compound and internal standard were detected by LC-MS/MS system, and the ratio of the peak area of the compound to the internal standard was calculated.
# BaF3 [EML4-ALK] [2] = molecular target: T1, BaF3 [EML4-ALK] (Homo sapiens, UniProt Q9UM73); experiment: Cytotoxicity test (CellTiter-Glo), BaF3 [EML4-ALK]; type: cell-based; conditions: 72 hours, CellTiter-Glo; read-out: IC50(nM) ALK (Ba/F3)
# T1 construct: IC50(nM) ALK (Ba/F3); other: 72 hours, CellTiter-Glo; BaF3 [EML4-ALK]; fused on or other part: Q9HC35 (Echinoderm microtubule-associated protein-like 4)
# Method: (§6) The in vitro anti-proliferative activity of the compounds of the present disclosure against three types of cells that are cultured in vitro was tested by CellTiter-Glo method.
# (§7) Cell lines: BaF3 parental; BaF3 [EML4-ALK] (From WuXi PharmaTech) and BaF3 [EMF4-AFK F1196M] (From WuXi PharmaTech); wherein, BaF3 parental was cultured in RPMI1640 medium containing 10 ng/ml IL-3, 10% fetal bovine serum, 100 U/ml penicillin, and 100 μg/ml streptomycin, BaF3 [EMF4-AFK] and BaF3 [EMF4-AFK F1196M] were cultured in RPMI1640 medium containing 10% fetal bovine serum, 100 U/ml penicillin, and 100 μg/ml streptomycin.
# (§8) Reagents and materials: RPMI-1640 (GIBCO, Cat. No. A10491-01); fetal bovine serum (GIBCO, Cat. No. 10099141); 0.25% trypsin-EDTA (GIBCO, Cat. No. 25200); penicillin-streptomycin, liquid (GIBCO, Cat. No. 15140-122); DMSO (Sigma, Cat. No. D2650); CellTiter-Glo Test Kit (Promega, Cat. No. G7572), and 96-well plate (Corning, Cat. No. 3365).
# (§9) 1. The test compounds were dissolved in DMSO to make stock solutions and subjected to a series gradient dilution to give solutions with 10-fold working concentration.
# (§10) 2. The cells in the logarithmic growth phase were diluted with the culture solution to adjust to the specific cell concentration, 90 μi of cell suspension was added to the 96-well plate to make the cell density reach the specified concentration. The plate was incubated in a incubator at 37° C., containing 5% carbon dioxide gas overnight.
# (§11) 3. 10 μl drug solutions were added to each well of the 96-well plate inoculated with cells. 10 concentrations of the compounds were tested starting from the highest concentration of 20 μM with a 3-fold series gradient dilution in duplicate.
# (§12) 4. After continuously cultured for 72 hours, the cells were detected by CellTiter-Glo for the cell viability. The dose-effect curve was made using GraphPad Prism software and IC50 was calculated.
# BaF3 [EML4-ALK] [3] = experiment: Cytotoxicity test (CellTiter-Glo), BaF3 [EML4-ALK]; type: cell-based; conditions: Ba/F3 cells
# Method: as §6, §7, §8, §9, §10, §11, §12
# [4] = Metabolic stability in rat liver microsomes; type: in vitro ADME; conditions: SD, pH 7.4, 1 μM compound, 0.5 mg/mL protein; for microsomal CLint at 1 μM: read-out: CLint (uL/min/mg), Rat liver microsome experiment; for half-life at 1 μM: read-out: t1/2 (min), Rat liver microsome experiment
# Method: as §1, §2, §3, §4, §5
# BaF3 parental = experiment: Cytotoxicity test (CellTiter-Glo), BaF3 parental; type: cell-based; conditions: Mus musculus, 72 hours, read-out: IC50(nM) parental (Ba/F3)
# Method: as §6, §7, §8, §9, §10, §11, §12
# ALK [WT] = ALK [WT] (Homo sapiens, UniProt Q9UM73); experiment: Kinase inhibition assay, ALK [WT]; type: biochemical
# Method: (§13) Compound preparation: The test compounds were dissolved in DMSO to make 20 mM stock solutions. The compounds were diluted in DMSO to 0.1 mM (a dilution with 100 times the final concentration) before use, and a 3-fold series gradient dilution with 11 concentrations was made. Dilutions with 4 times of the final concentration were prepared by diluting with buffer when dosing.
# (§14) Kinase assay: after preparing the buffer solution, the enzyme was mixed with pre-diluted compounds with different concentrations, and placed at room temperature for 30 minutes in duplicate. The corresponding substrate and ATP were added thereto and reacted at room temperature for 60 minutes (both a negative and a positive control were set). After the reaction, antibody was added for detection, and after incubation at room temperature for 60 minutes, Evnvision detection was carried out, and data was collected. Data was analyzed and fit according to XLfit5 software. IC50 was calculated by the following formula: (IC50=[(ABS test−ABS begin)/(ABS control−ABS begin)]×100).
# ALK[L1196M] (Ba/F3) [5] = molecular target: T2, ALK[L1196M] (Ba/F3) (Homo sapiens, UniProt Q9UM73, L1196M, cells depend on it); experiment: Cytotoxicity test (CellTiter-Glo), BaF3 EML4-ALK L1196M; type: cell-based; conditions: 72 hours, CellTiter-Glo; read-out: IC50(nM) ALK[L1196M] (Ba/F3)
# T2 construct: IC50(nM) ALK[L1196M]; (Ba/F3); other: 72 hours, CellTiter-Glo; BaF3 [EMF4-AFK F1196M]; fused on or other part: Q9HC35 (Echinoderm microtubule-associated protein-like 4)
# Method: as §6, §7, §8, §9, §10, §11, §12
# ALK[L1196M] (Ba/F3) [6] = experiment: as above; type: cell-based; conditions: Ba/F3 cells
# Method: as §6, §7, §8, §9, §10, §11, §12
# ALK [L1196M] = ALK [L1196M] (Homo sapiens, UniProt Q9UM73, L1196M); experiment: Kinase inhibition assay, ALK [L1196M]; type: biochemical
# Method: as §13, §14
# T2 sequence (Q9UM73 whole entry L1196M, the tested form may be a part): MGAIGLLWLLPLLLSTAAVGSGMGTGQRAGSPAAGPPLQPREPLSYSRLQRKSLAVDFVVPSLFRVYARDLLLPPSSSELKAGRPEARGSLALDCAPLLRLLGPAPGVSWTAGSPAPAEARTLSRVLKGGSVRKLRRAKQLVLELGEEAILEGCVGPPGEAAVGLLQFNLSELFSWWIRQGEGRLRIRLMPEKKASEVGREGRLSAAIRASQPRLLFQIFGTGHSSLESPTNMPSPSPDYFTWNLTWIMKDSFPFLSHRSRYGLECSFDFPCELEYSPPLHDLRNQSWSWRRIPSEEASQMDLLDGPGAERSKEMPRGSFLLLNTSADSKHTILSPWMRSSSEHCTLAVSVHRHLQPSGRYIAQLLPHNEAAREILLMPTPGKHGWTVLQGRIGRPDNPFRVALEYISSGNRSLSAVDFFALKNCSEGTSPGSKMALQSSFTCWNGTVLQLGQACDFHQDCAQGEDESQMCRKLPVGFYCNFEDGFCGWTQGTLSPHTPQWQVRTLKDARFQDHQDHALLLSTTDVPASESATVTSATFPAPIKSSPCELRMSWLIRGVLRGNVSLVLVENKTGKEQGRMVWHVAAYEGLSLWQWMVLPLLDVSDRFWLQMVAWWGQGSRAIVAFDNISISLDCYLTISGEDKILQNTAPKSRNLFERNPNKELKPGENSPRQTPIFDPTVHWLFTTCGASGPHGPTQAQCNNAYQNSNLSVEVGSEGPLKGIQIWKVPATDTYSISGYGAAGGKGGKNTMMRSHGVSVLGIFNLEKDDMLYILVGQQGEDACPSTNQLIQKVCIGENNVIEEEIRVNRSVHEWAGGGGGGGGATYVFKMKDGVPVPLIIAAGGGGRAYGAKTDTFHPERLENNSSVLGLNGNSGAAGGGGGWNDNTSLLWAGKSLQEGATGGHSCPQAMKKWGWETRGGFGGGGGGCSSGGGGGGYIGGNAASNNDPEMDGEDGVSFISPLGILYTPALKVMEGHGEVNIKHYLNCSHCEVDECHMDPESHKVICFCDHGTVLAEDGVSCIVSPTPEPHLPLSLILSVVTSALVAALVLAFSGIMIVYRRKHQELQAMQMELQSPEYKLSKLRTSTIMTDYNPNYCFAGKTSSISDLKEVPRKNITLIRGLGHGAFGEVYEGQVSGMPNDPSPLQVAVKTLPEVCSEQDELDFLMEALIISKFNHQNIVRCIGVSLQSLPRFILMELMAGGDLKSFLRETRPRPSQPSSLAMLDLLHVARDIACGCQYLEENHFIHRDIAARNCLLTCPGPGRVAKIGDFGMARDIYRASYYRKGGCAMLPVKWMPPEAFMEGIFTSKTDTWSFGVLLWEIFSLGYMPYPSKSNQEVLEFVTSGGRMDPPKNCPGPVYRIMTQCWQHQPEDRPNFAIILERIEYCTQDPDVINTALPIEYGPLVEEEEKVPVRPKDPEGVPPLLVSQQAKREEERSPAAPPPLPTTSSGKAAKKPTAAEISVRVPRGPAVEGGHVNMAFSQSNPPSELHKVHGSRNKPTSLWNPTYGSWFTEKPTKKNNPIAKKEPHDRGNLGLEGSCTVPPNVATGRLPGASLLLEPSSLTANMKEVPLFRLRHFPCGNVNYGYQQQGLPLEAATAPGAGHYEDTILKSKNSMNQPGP
# T1 sequence (Q9UM73 whole entry, change not shown, the tested form may be a part): as the sequence (Q9UM73 whole entry L1196M, the tested form may be a part) above, with M1196L counted along it
# Sequence of ALK [WT] (Q9UM73 19-1620): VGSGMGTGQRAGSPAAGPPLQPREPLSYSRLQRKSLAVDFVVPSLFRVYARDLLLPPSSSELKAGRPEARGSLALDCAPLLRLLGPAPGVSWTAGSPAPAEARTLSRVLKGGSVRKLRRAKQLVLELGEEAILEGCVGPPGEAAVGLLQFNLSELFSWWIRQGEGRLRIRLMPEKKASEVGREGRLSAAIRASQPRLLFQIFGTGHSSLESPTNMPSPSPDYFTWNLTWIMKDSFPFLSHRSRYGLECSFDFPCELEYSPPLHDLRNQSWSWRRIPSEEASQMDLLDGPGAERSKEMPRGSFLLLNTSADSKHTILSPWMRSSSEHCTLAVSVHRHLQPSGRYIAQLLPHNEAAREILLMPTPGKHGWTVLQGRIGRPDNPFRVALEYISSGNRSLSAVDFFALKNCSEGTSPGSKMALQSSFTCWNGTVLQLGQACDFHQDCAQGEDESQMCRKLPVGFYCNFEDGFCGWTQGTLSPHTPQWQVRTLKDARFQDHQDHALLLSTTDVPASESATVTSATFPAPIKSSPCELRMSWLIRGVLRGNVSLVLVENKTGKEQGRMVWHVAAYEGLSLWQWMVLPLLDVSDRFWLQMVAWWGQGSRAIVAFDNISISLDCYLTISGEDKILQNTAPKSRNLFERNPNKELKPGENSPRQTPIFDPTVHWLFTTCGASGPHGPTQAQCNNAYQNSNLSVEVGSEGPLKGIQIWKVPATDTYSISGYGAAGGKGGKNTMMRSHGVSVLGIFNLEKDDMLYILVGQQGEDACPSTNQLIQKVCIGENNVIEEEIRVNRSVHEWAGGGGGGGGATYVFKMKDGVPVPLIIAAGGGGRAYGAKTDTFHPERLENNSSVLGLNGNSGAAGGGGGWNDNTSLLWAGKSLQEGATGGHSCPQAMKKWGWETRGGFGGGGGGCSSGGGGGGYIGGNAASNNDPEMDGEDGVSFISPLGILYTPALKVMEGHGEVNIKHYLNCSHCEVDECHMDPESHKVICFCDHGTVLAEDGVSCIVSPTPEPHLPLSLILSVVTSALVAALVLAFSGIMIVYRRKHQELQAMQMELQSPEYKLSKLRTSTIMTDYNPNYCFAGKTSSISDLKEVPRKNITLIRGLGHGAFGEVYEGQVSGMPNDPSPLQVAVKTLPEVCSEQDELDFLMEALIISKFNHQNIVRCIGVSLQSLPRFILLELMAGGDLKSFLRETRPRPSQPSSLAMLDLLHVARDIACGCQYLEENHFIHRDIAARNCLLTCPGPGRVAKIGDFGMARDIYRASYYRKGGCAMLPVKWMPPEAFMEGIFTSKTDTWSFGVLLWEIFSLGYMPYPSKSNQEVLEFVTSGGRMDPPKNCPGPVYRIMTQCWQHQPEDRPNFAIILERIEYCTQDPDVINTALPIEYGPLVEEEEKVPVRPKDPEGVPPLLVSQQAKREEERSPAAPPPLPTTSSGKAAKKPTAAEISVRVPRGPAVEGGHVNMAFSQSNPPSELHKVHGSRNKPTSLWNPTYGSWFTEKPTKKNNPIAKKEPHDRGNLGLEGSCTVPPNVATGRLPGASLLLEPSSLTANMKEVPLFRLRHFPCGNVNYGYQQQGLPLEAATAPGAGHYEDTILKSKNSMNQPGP
# Sequence of ALK [L1196M] (Q9UM73 19-1620 L1196M): as the sequence (Q9UM73 19-1620) above, with L1178M counted along it
Compound,microsomal CLint at 1 μM [1],half-life at 1 μM [1],GI50 (BaF3 [EML4-ALK] [2]),Selectivity parental/ALK (BaF3 [EML4-ALK] [3]),microsomal CLint at 1 μM [4],half-life at 1 μM [4],IC50 (BaF3 parental),IC50 (ALK [WT]),GI50 (ALK[L1196M] (Ba/F3) [5]),Selectivity parental/ALK[L1196M] (ALK[L1196M] (Ba/F3) [6]),IC50 (ALK [L1196M])
"CNC(C)(C)c1ccc(Nc2ncc(Cl)c(Nc3ccccc3P(C)(C)=O)n2)c(OC)c1 [Example 15, (2-((5-chloro-2-((2-methoxy-4-(2-(methylamino)propan-2-yl)phenyl)amino)pyrimidin-4-yl)amino)phenyl)dimethylphosphine oxide]",20.7 µL/min/mg,66.9 min,50 to 100 nM,<50,17.6 µL/min/mg,78.8 min,≥ 1000 nM,≤ 2 nM,100 to 200 nM,<50,≤ 2 nM
"COc1cc(C(C)(C)CN)ccc1Nc1ncc(Cl)c(Nc2ccccc2P(C)(C)=O)n1 [Example 10, (2-((2-((4-(1-amino-2-methylpropan-2-yl)-2-methoxyphenyl)amino)-5-chloropyrimidin-4-yl)amino)phenyl)dimethylphosphine oxide]",25.2 µL/min/mg,55 min,25 to 50 nM,100 to 200,15.1 µL/min/mg,92 min,≥ 1000 nM,2 to 5 nM,100 to 200 nM,<50,2 to 5 nM
"COc1cc(CCN)ccc1Nc1ncc(Cl)c(Nc2ccccc2P(C)(C)=O)n1 [Example 2, (2-((2-((4-(2-aminoethyl)-2-methoxyphenyl)amino)-5-chloropyrimidin-4-yl)amino)phenyl)dimethylphosphine oxide]",8.7 µL/min/mg,160 min,100 to 200 nM,<50,8.4 µL/min/mg,165 min,≥ 1000 nM,≤ 2 nM,200 to 1000 nM,<50,2 to 5 nM
"CNCC(C)(C)c1ccc(Nc2ncc(Cl)c(Nc3ccccc3P(C)(C)=O)n2)c(OC)c1 [Example 11, (2-((5-chloro-2-((2-methoxy-4-(2-methyl-1-(methylamino)propan-2-yl)phenyl)amino)pyrimidin-4-yl)amino)phenyl)dimethylphosphine oxide]",23.8 µL/min/mg,58.2 min,25 to 50 nM,100 to 200,7.2 µL/min/mg,194 min,≥ 1000 nM,2 to 5 nM,50 to 100 nM,50 to 100,5 to 10 nM
"COc1cc(CN(C)C)ccc1Nc1ncc(Cl)c(Nc2ccccc2P(C)(C)=O)n1 [Example 1, (2-((5-chloro-2-((4-((dimethylamino)methyl)-2-methoxyphenyl)amino)pyrimidin-4-yl)amino)phenyl)dimethylphosphine oxide]",10.6 µL/min/mg,131 min,50 to 100 nM,<50,43.4 µL/min/mg,31.9 min,≥ 1000 nM,5 to 10 nM,100 to 200 nM,<50,5 to 10 nM
"COc1cc(CCN2CCCCC2)ccc1Nc1ncc(Cl)c(Nc2ccccc2P(C)(C)=O)n1 [Example 4, (2-((5-chloro-2-((2-methoxy-4-(2-(piperidin-1-yl)ethyl)phenyl)amino)pyrimidin-4-yl)amino)phenyl)dimethylphosphine oxide]",26.7 µL/min/mg,51.9 min,< 25 nM,200 to 500,34.7 µL/min/mg,39.9 min,≥ 1000 nM,≤ 2 nM,50 to 100 nM,<50,2 to 5 nM
